Data set [1] concerns the target T1, estrogen receptor (Sus scrofa, UniProt Q29040).
T1 sequence (Q29040 1-595): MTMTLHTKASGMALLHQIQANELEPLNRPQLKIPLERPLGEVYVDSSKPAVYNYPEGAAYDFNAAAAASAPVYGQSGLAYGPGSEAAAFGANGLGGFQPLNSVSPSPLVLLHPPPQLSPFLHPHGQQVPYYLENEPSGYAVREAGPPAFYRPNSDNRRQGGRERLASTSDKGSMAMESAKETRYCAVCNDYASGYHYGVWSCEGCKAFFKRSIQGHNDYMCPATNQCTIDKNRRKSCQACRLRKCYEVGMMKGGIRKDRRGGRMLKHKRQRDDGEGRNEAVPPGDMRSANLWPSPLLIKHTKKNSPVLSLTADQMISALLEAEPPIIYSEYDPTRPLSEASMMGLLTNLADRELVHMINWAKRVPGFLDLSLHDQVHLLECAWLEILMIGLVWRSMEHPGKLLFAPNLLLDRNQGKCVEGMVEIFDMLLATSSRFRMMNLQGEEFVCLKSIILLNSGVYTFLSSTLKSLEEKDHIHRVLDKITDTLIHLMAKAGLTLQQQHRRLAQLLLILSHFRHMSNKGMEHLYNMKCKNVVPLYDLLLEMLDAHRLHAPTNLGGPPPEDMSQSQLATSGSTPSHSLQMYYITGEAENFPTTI
Put plainly: biochemical. Particulars: IC-50 estrogen receptor binding; [^3H]estradiol (5 nM).

Data set [2] deals with T1, estrogen receptor.
Data set [3] in a line: Uterus to muscle ratio (tissue uptake, method not described). Particulars: in vivo.
Data set [4] has as its target estrogen receptor (Homo sapiens, UniProt P03372). Conditions: Salituro et al.; cited from earlier work.

Molecules are shown by their SMILES.

Sequence of estrogen receptor (Homo sapiens, UniProt P03372) (P03372 whole entry): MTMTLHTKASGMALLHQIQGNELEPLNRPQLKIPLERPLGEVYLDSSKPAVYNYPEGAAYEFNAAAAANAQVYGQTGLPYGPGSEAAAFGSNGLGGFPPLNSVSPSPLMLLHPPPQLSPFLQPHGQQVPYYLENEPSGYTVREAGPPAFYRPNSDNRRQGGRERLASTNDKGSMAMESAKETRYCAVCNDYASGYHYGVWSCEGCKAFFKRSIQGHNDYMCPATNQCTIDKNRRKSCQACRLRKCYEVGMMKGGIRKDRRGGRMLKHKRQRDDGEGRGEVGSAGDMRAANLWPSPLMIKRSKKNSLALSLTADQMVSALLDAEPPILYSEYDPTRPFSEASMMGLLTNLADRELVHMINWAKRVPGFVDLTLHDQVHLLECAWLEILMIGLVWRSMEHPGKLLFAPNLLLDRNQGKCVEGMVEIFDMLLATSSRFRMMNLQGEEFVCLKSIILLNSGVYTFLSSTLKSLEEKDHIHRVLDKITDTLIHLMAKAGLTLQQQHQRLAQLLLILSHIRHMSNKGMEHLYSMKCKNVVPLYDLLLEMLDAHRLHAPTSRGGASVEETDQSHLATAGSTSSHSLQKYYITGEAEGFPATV

`CCN(CC)CCOc1ccc(/C(=C(/CCCI)c2ccccc2)c2ccccc2)cc1` [Compound X] gave an IC50 on estrogen receptor [1] of 2000 nM. Further, the “fold higher affinity for the estrogen receptor than native tamoxifen” value on estrogen receptor [2] is 10-15 fold. In addition, the “uterus to muscle ratio” value in data set [3] came out at 3.6.

`CC/C(=C(\c1ccccc1)c1ccc(OCCN2CC2)cc1)c1ccccc1` (single isomer, unassigned) [tamoxifen azizidine cis isomer, tamoxifen azizidine]: the “fold less affinity than the trans isomer” value at estrogen receptor [4] is on record as 50 fold.

Source of the values: patent EP0551434B1 (BOARD OF REGENTS THE UNIVERSITY OF TEXAS SYSTEM, priority 1990, dated 1992).
